Consider 14 compounds from patent publication US8450527B2, “Amine derivative compounds for treating ophthalmic diseases and disorders” (Acucela Inc., priority 2007, dated 2013).

For one test, the target named is T1, visual cycle isomerase (Bos taurus, UniProt Q28175).
T1 construct: Bovine Retinal Pigment Epithelium (RPE) microsome membranes were the source of a visual cycle isomerase; from tissue; host or cells: bovine retinal pigment epithelium microsome membranes; CRALBP made in E. coli
T1 sequence (Q28175 2-533 limits assumed): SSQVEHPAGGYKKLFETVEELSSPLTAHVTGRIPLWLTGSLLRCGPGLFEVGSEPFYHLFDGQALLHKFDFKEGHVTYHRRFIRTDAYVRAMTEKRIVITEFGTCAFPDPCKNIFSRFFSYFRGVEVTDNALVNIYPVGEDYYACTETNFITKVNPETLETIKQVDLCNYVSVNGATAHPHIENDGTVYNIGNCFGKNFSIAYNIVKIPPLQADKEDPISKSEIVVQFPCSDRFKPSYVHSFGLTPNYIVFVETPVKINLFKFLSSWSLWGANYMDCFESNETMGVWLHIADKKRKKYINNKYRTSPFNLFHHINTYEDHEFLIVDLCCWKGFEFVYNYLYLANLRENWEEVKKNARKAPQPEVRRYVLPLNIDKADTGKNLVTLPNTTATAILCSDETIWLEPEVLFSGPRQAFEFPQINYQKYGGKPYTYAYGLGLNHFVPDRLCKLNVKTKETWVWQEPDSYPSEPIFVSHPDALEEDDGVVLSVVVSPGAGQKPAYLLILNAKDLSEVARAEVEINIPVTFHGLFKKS
In words: In vitro isomerase inhibition assay, bovine RPE microsome membranes. The test is classed as biochemical. Conditions: inhibition of 11-cis retinol formation; values given as ranges. The procedure:
The capability of amine derivative compounds to inhibit the activity of a visual cycle isomerase was determined
Isomerase inhibition reactions were performed essentially as described (Stecher et al., J. Biol. Chem. 274:8577-85 (1999); see also Golczak et al., Proc. Natl. Acad. Sci. USA 102:8162-67 (2005)). Bovine Retinal Pigment Epithelium (RPE) microsome membranes were the source of a visual cycle isomerase.
Bovine RPE microsome membrane extracts were prepared according to methods described (Golczak et al., Proc. Natl. Acad. Sci. USA 102:8162-67 (2005)) and stored at −80° C. Crude RPE microsome extracts were thawed in a 37° C. water bath, and then immediately placed on ice. 50 ml crude RPE microsomes were placed into a 50 ml Teflon-glass homogenizer (Fisher Scientific, catalog no. 0841416M) on ice, powered by a hand-held DeWalt drill, and homogenized ten times upand down on ice under maximum speed. This process was repeated until the crude RPE microsome solution was homogenized. The homogenate was then subjected to centrifugation (50.2 Ti rotor (Beckman, Fullerton, Calif.), 13,000 RPM; 15360 Rcf) for 15 minutes at 4° C. The supernatant was collected and subjected to centrifugation at 42,000 RPM (160,000 Rcf; 50.2 Ti rotor) for 1 hour at 4° C. The supernatant was removed, and the pellets were suspended in 12 ml (final volume) cold 10 mM MOPS buffer, pH 7.0. The resuspended RPE membranes in 5 ml aliquots were homogenized in a glass-to-glass homogenizer (Fisher Scientific, catalog no.K885500-0021) to high homogeneity. Protein concentration was quantified using the BCA protein assay according to the manufacturer's protocol (Pierce, Rockford, Ill.). The homogenized RPE preparations were stored at −80° C.
Recombinant human apo cellular retinaldehyde-binding protein (CRALBP) was cloned and expressed according to standard methods in the molecular biology art (see Crabb et al., Protein Science 7:746-57 (1998); Crabb et al., J. Biol. Chem. 263:18688-92 (1988)). Briefly, total RNA was prepared from confluent ARPE^19 cells (American Type Culture Collection, Manassas, Va.), cDNA was synthesized using an oligo(dT)12-18 primer, and then DNA encoding CRALBP was amplified by two sequential polymerase chain reactions (see Crabb et al., J. Biol. Chem. 263:18688-92 (1988); Intres, et al., J. Biol. Chem. 269:25411-18 (1994); GenBank Accession No. L34219.1). The PCR product was sub-cloned into pTrcHis2-TOPO TA vector according to the manufacturer's protocol (Invitrogen Inc., Carlsbad, Calif.; catalog no. K4400-01), and then the sequence was confirmed according to standard nucleotide sequencing techniques. Recombinant 6×His-tagged human CRALBP was expressed in One Shot TOP 10 chemically competent E. coli cells (Invitrogen), and the recombinant polypeptide was isolated from E. coli cell lysates by nickel affinity chromatography using nickel (Ni) Sepharose XK16-20 columns for HPLC (Amersham Bioscience, Pittsburgh, Pa.; catalog no.17-5268-O2). The purified 6×His-tagged human CRALBP was dialyzed against 10 mM bis-tris-Propane (BTP) and analyzed by SDS-PAGE. The molecular weight of the recombinant human CRALBP was approximately 39 kDal.
Amine derivative compounds and control compounds were reconstituted in ethanol to 0.1 M. Ten-fold serial dilutions (10^−2, 10^−3, 10^−4, 10^−5, 10^−6 M) in ethanol of each compound were prepared for analysis in the isomerase assay.
The isomerase assay was performed in 10 mM bis-tris-propane (BTP) buffer, pH 7.5, 0.5% BSA (diluted in BTP buffer), 1 mM sodium pyrophosphate, 20 μM all-trans retinol (in ethanol), and 6 μM apo-CRALBP. The test compounds (2 μl) (final 1/15 dilution of serial dilution stocks) were added to the above reaction mixture to which RPE microsomes were added. The same volume of ethanol was added to the control reaction (absence of test compound). Bovine RPE microsomes (9 μl) (see above) were then added, and the mixtures transferred to 37° C. to initiate the reaction (total volume=150 μl). […]

Test [1] deals with retinoid nuclear receptors (RAR and RxR). In words: Retinoid nuclear receptor activity.

With `CCCC(O)(CCC)CCc1cccc(CCCN)c1` [Example 3, 4-(3-(3-aminopropyl)phenethyl)heptan-4-ol], the IC50 (usually the concentration needed to halve the response being measured) against visual cycle isomerase was at most 1 µM.
`NCCCc1cccc(CCC2(O)CCCCC2)c1` [Example 7, 1-(3-(3-aminopropyl)phenethyl)cyclohexanol] yielded a concentration for half-maximal inhibition (IC50) at visual cycle isomerase of at most 1 µM. Besides, the “effects on retinoid nuclear receptors (RAR and RxR)” value (from here on “effects”) in test [1] is recorded as “did not show significant effects”.
Turning to `CCCC(O)(CCC)CCc1cccc(OCCN)c1` [Example 9, 4-(3-(2-aminoethoxy)phenethyl)heptan-4-ol], the IC50 against visual cycle isomerase was at most 1 µM.
Regarding `NCCOc1cccc(CCC2(O)CCCCCC2)c1` [Example 10, 1-(3-(2-aminoethoxy)phenethyl)cycloheptanol], on visual cycle isomerase, the IC50 was at most 1 µM.
The same measure, in the same setting: the figure for `NCCOc1cccc(CCC2(O)CCSCC2)c1` [Example 11, 4-(3-(2-aminoethoxy)phenethyl)tetrahydro-2H-thiopyran-4-ol] is at most 1 µM.
`NCCOc1cccc(CCC2(O)CCCCC2)c1` [Example 12, 1-(3-(2-aminoethoxy)phenethyl)cyclohexanol] showed a 50% inhibitory concentration (IC50) against visual cycle isomerase of at most 1 µM. Further, the “effects” value in test [1] is reported as “did not show significant effects”.
The compound `NCCC(O)c1cccc(CCC2(O)CCCCC2)c1` (stereo not drawn) [Example 15, 1-(3-(3-amino-1-hydroxypropyl)phenethyl)cyclohexanol] displayed an IC50 on visual cycle isomerase of at most 1 µM.
On to `NCCC(O)c1cccc(CCC2(O)CCCCCC2)c1` (stereo not drawn) [Example 16, 1-(3-(3-amino-1-hydroxypropyl)phenethyl)cycloheptanol], for which, at visual cycle isomerase, the IC50 was at most 1 µM. Besides, the “effects” value in test [1] is “did not show significant effects”.
Regarding `NCCC(O)c1cccc(CCC2CCCC2)c1` (stereo not drawn) [Example 17, 3-amino-1-(3-(2-cyclopentylethyl)phenyl)propan-1-ol], at visual cycle isomerase, the 50% inhibitory concentration (IC50) was at most 1 µM.
`CCCC(O)(CCC)CCc1cccc(C(O)CCN)c1` (stereo not drawn) [Example 19, 4-(3-(3-amino-1-hydroxypropyl)phenethyl)heptan-4-ol] yielded an IC50 on visual cycle isomerase of at most 1 µM.
With `NCCCc1cccc(CCC2(O)CCCCCC2)c1` [Example 20, 1-(3-(3-aminopropyl)phenethyl)cycloheptanol], on visual cycle isomerase, the concentration for half-maximal inhibition (IC50) was at most 1 µM. Also, the “effects” value in test [1] was “did not show significant effects”.
`CCCCCc1cccc(CCCN)c1` [Example 27, 3-(3-pentylphenyl)propan-1-amine] returned an IC50 against visual cycle isomerase of at most 1 µM.
The same measure, in the same setting: the figure for `CC(C)(C)CCc1cccc(CCCN)c1` [Example 29, 3-(3-(3,3-dimethylbutyl)phenyl)propan-1-amine] is at most 1 µM; for `NCCCc1cccc(CCCCc2ccccc2)c1` [Example 35, 3-(3-(4-phenylbutyl)phenyl)propan-1-amine] it is at most 1 µM.
